# Test results reported in PubChem BioAssay AID2745 (NMMLSC, 2010).
# Where “and” joins values, the source holds several entries; their conditions need not be identical. Identical values can stand only once. Calls of active or inactive are those of the source. How the calls were made is not given here.
# Assay: concentration series on yeast TOR reporter LAP4 – cell-based, MLPCN hits, flow cytometry, dose response (AID 2745);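 further: yeast exposed to compound for three hours at 30 degrees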
# Details: S. cerevisiae LAP4-GFP reporter, flow cytometry fluorescence; at 33 µM (top of the series)
row,SMILES,LAP4-GFP fluorescence (kMESF)
1,Cc1ccc(C(=O)O/N=C(\N)Cc2cccs2)c(Cl)c1,13.1 kMESF (inactive)
2,COc1cc(/C=C/c2ccc3c(Br)cc(Br)c(O)c3n2)ccc1O,11.7 kMESF (inactive)
3,CN(C)c1ccc(N=Cc2nc(-c3ccccc3)oc2OC(=O)c2ccccc2)cc1,4.09 kMESF (inactive)
4,N/C(=N\OC(=O)c1ccc(Cl)cc1Cl)c1ccccc1,12.4 kMESF (inactive)
5,O=C(OCC(=O)N1CCN(C(=O)c2ccco2)CC1)c1cc(-c2ccccc2)nc2ccccc12,10.4 kMESF (inactive) and 6.1 kMESF (inactive)
6,CCOC(=O)CS(=O)(=O)c1nc(-c2ccc(F)cc2)cc(C(F)(F)F)n1,11.2 kMESF (inactive)
7,Cc1nc2ccc(NC(=O)c3oc4ccc(F)cc4c3C)cc2s1,3.28 kMESF (inactive)
8,COc1ccc(C(=O)/C=C2/C(=O)Nc3ccccc32)cc1OC,4.19 kMESF (inactive)
9,O=C(/C=C/c1ccccc1[N+](=O)[O-])c1ccccc1Br,15.6 kMESF (inactive)
10,N#C/C(=C\c1cc(Br)ccc1F)C(=O)NC1CC1,18.3 kMESF (inactive)
11,O=C(Nc1ccc(O)cc1)C1CCCN1S(=O)(=O)c1ccc(F)cc1 (configuration not stated),3.13 kMESF (inactive)
12,Cc1ccc(C(=O)NNC(=S)NC(=O)c2ccco2)cc1,7.42 kMESF (inactive)
13,Cc1cccc(N2C(=O)C(Cl)=C(Nc3c(C)n(C)n(-c4ccccc4)c3=O)C2=O)c1C,6.11 kMESF (inactive)
14,O=C1C2C3C=CC(CO)(O3)C2C(=O)N1c1ccccc1-c1ccccc1 (configuration not stated),5.75 kMESF (inactive)
15,CCCCCCCCCCCCCCCC[n+]1cccc2ccccc21,1.21 kMESF (inactive)
16,O=C(CSC1=NS(=O)(=O)c2ccccc21)Nc1ccccc1,7.82 kMESF (inactive)
17,Cc1sc(/C=C2\C(=O)ON=C2c2ccccc2)cc1Br,2.73 kMESF (inactive)
18,COc1cc(NC(=O)c2cccc(C)c2)ccc1NC(=O)c1cc2ccccc2o1,3.31 kMESF (inactive)
19,COc1cc(CNC(=O)CCCCCCC(C)C)ccc1O,3.74 kMESF (inactive)
20,CCOc1ccc(NC2=C(Cl)C(=O)N(Cc3ccccc3)C2=O)cc1,6.11 kMESF (inactive)
21,Cc1cc(C)nc(S/C=C/C(=O)c2ccccc2)n1,11 kMESF (inactive)
22,CCCc1ccc(OCC(=O)NNC(=S)NC(=O)c2ccco2)cc1,11.2 kMESF (inactive)

row,SMILES,LAP4-GFP fluorescence (kMESF)
1,CC(OC(=O)c1ccco1)C(=O)Nc1nc(-c2ccccc2)cs1 (configuration not stated),3.33 kMESF (inactive)
2,O=C1NC(=O)N(CCc2ccc(F)cc2)C(=O)/C1=C/c1cccs1,9.69 kMESF (inactive)
3,Nc1c(C(=O)c2cccs2)sc2nsc(SCCN3CCCCC3)c12,-1.87 kMESF (inactive)
4,Cc1cc(/C=C2/SC(=S)N(c3cccc(Cl)c3)C2=O)c(C)n1-c1cccnc1,10.5 kMESF (inactive)
5,Cc1ccc(-c2nc(C)sc2CC(=O)Nc2nnc(C)s2)cc1,3.81 kMESF (inactive)
6,CCN(CC)c1ccc2cc(-c3nc(-c4ccc(OC)cc4)cs3)c(=O)oc2c1,1.57 kMESF (inactive)
7,CC(=O)OC[C@]12CC[C@H]3[C@@](C)(CC[C@H]4C(C)(C)CCC[C@]34C)[C@@H]1C[C@H](C1=CC(=O)O[C@@H]1OC(C)=O)O2,13.6 kMESF (inactive)
8,COc1ccc(C=C2C(=O)c3ccccc3C2=O)cc1O,3.24 kMESF (inactive)
9,Cc1cccc(NC(c2ccc(C)s2)c2ccc3ccc(C)nc3c2O)n1 (configuration not stated),16.8 kMESF (inactive)
10,CCC(=O)Oc1oc(-c2ccccc2)nc1C=Nc1ccccc1OC,4.64 kMESF (inactive)
11,Cc1ccc(C(CC(=O)O)NC(=O)c2ccc(S(=O)(=O)N3CC(C)OC(C)C3)cc2)cc1 (configuration not stated),3.28 kMESF (inactive)
12,COc1ccc(N2C(=O)C(Cl)=C(NCc3ccccc3)C2=O)cc1,6.61 kMESF (inactive)
13,O=C(NCc1ccc2c(c1)OCO2)c1nc(S(=O)(=O)Cc2ccccc2)ncc1Cl,4.7 kMESF (inactive)
14,Cc1ccc(NC(=O)c2cc(N3C(=O)C=CC3=O)ccc2N2CCOCC2)cc1Cl,10.5 kMESF (inactive)
15,O=c1c(-c2ccc(Cl)cc2)[n+]([O-])c2ccccc2n1O,16.1 kMESF (inactive)
16,CCn1c(/C=C/c2ccc([N+](=O)[O-])o2)nc2ccccc2c1=O,-69.5 kMESF (inactive)
17,C#CCOCCOCCOCCNc1nc(N2CCN(C(=O)CCCCCCCCCCNC(=O)[C@H](CCCCN)n3cc(CCO)nn3)CC2)nc(N2CCN(C(=O)CCCCCCCCCCNC(=O)[C@H](CCCCN)n3cc(C[C@@H](C)CC)nn3)CC2)n1,5.86 kMESF (inactive)
18,COc1ccc2c(c1)S/C(=C\C(=O)c1ccncc1)N2C,4.85 kMESF (inactive)
19,N/C(=N\OC(=O)c1cccc(Br)c1)c1ccccc1,4.51 kMESF (inactive)
20,O=C(/C=C/c1ccnc2ccccc12)c1cccs1,11.4 kMESF (inactive)
21,O=C(Oc1oc(-c2ccco2)nc1C=Nc1ccccc1)c1ccco1,23.7 kMESF (inactive)
22,O=C(/C=C/c1ccc(Br)cc1)NC(=S)NNC(=O)c1ccco1,5.87 kMESF (inactive)

row,SMILES,LAP4-GFP fluorescence (kMESF)
1,O=C1Nc2ccc(Br)cc2/C1=C/C(=O)c1ccc2c(c1)OCO2,10.4 kMESF (inactive)
2,COc1ccc(NC2=C(Cl)C(=O)N(CCc3ccccc3)C2=O)cc1,5.81 kMESF (inactive)
3,CC(C)CC(=O)NC(=S)Nc1nc(-c2ccccc2)cs1,3.44 kMESF (inactive)
4,O=C(OCC(=O)N1CCN(C(=O)c2ccco2)CC1)c1cc(-c2cccc(Br)c2)nc2ccccc12,9.27 kMESF (inactive)
5,C=CCN1C(=O)/C(=C/c2cccs2)C(=O)NC1=S,4.47 kMESF (inactive)
6,CCN1/C(=C/C=C/c2sc3ccccc3[n+]2CC)Sc2ccccc21,7.72 kMESF (inactive)
7,Cc1nn(C)c(C)c1N1C(=O)c2cccc3c(Br)ccc(c23)C1=O,5.85 kMESF (inactive)
8,O=C(Nc1cccc(C(F)(F)F)c1)Oc1ccc(Cl)c2cccnc12,12.8 kMESF (inactive)
9,Cc1ccc(N2C(=O)CC(Sc3ncn[nH]3)C2=O)cc1C (configuration not stated),7.56 kMESF (inactive)
10,N#Cc1ccc(N=c2ssnc2Cl)cc1,9.41 kMESF (inactive)
11,Nc1ccccc1SC(C[N+](=O)[O-])c1ccccc1 (configuration not stated),11.5 kMESF (inactive)
12,O=C1N(c2ccccc2C(F)(F)F)O[C@]1(c1ccccc1)C1CCCC1,3.98 kMESF (inactive)
13,Oc1ccc(CNc2ccccc2)c2cccnc12,3.88 kMESF (inactive)
14,CCCc1cc(N2CCN(c3ccccn3)CC2)n2nc(C)c(-c3ccccc3)c2n1,5.75 kMESF (inactive)
15,O=C(NC(=S)NNC(=O)[C@H]1C[C@@H]1c1ccccc1)c1cccc(F)c1,17.8 kMESF (inactive)
16,Cc1ccccc1OCCOC(=O)c1ccc(S(=O)(=O)N2CCCC2)cc1,3.13 kMESF (inactive)
17,C=CCOc1ccc(C(=O)/C=C2/C(=O)Nc3ccccc32)cc1,7.99 kMESF (inactive)
18,COc1cc(N=c2ssnc2Cl)cc(OC)c1,11.3 kMESF (inactive)
19,O=C(Oc1c(Cl)cc(Cl)c2cccnc12)c1cccs1,13.8 kMESF (inactive)
20,COc1ccc(/C=C/C(=O)c2cc(Br)ccc(=O)c2O)cc1,-33.8 kMESF (inactive)
21,CN(c1ccccc1)c1ccc(/C=c2\s/c(=C(/C#N)C(=O)C(C)(C)C)n(Cc3ccco3)c2=O)cc1,10.4 kMESF (inactive)
22,COc1cc(NC(=O)c2ccccc2[N+](=O)[O-])ccc1NC(=O)c1cc2ccccc2o1,3.31 kMESF (inactive)

row,SMILES,LAP4-GFP fluorescence (kMESF)
1,Nc1nc(N)c2nc(CNc3ccc(C(=O)NC(CCC(=O)O)C(=O)O)cc3)cnc2n1 (configuration not stated),3.13 kMESF (inactive)
2,O=C1ON=C(c2ccc(Cl)cc2)/C1=C/c1ccc(O)cc1,6.72 kMESF (inactive)
3,O=C1C=C(c2ccc(Cl)cc2)C(=O)N1Nc1ccccc1,5.81 kMESF (inactive)
4,COc1cccc2c(=O)c(C(=O)NCc3cccs3)c[nH]c12,2.13 kMESF (inactive)
5,CC(=O)Oc1ccc(N2C(=O)C3C4C=CC(O4)C3C2=O)cc1 (configuration not stated),6.57 kMESF (inactive)
6,CCC1(c2ccccc2)ON(c2c(Br)cccc2Br)C1=O (configuration not stated),7.52 kMESF (inactive)
7,COc1ccccc1-c1nc2s/c(=C\c3cccs3)c(=O)n2n1,5.46 kMESF (inactive)
8,Oc1c(Br)cc(Br)cc1C=Nc1ccc2[nH]ncc2c1,13.1 kMESF (inactive)
9,O=C1C=CC(=O)N1c1ccc(OC(F)F)cc1,4.2 kMESF (inactive)
10,COc1ccccc1NC1=C(Cl)C(=O)N(c2ccccc2)C1=O,2.98 kMESF (inactive)
11,O=C(c1ccc([N+](=O)[O-])o1)N1CCN(c2nc3c(F)cc(F)cc3s2)CC1,-0.9 kMESF (inactive)
12,O=S(=O)(c1ccccc1)c1ccc(C(F)(F)F)cn1,4.29 kMESF (inactive)
13,CCOC(=O)CS(=O)(=O)c1nc(-c2ccccc2)cc(C(F)(F)F)n1,19.9 kMESF (inactive)
14,Cc1ccc(/C=C/C(=O)c2ccc([N+](=O)[O-])o2)cc1,9.71 kMESF (inactive)
15,O=C(c1ccc(Cl)cc1)N1CCN(c2cccc3[nH]ccc23)CC1,6.45 kMESF (inactive)
16,O=C(Oc1cccc2cccnc12)c1ccc(Br)o1,3.74 kMESF (inactive)
17,CCOC(=O)C(C(=O)OCC)C(C(=O)OCC)N1CCOCC1 (configuration not stated),6.39 kMESF (inactive)
18,CCc1nc2ccccc2c(=O)n1NC(=O)c1c(O)c2ccccc2n(CC)c1=O,3.31 kMESF (inactive)
19,C=CCOc1ccccc1C(=O)/C=C1/C(=O)Nc2ccccc21,10.2 kMESF (inactive)
20,CS(=O)(=O)c1nc(-c2ccccc2)cc(C(F)(F)F)n1,16.6 kMESF (inactive)
21,O=c1[nH]c(-c2ccc(Cl)cc2)cs1,3.03 kMESF (inactive)
